# Measured values published in ChEMBL document CHEMBL3872220, “Amphiphilic xanthones as a potent chemical entity of anti-mycobacterial agents with membrane-targeting properties” (Eur J Med Chem, 2016).
# Key:
# [1] = test system: Mycolicibacterium smegmatis; assay: Antimycobacterial activity against Mycobacterium smegmatis MC2 155 assessed as ATP leakage by measuring intracellular ATP at MIC measured at 9 hrs post dose by luciferase reporter gene assay; format: functional, str. MC2 155
# [2] = test system: Mycolicibacterium smegmatis; assay: Antimycobacterial activity against Mycobacterium smegmatis MC2 155 assessed as ATP leakage by measuring extracellular ATP at 0.5 times MIC measured at 1 hr of post dose by luciferase reporter gene assay; format: functional, str. MC2 155
# [3] = test system: Mycolicibacterium smegmatis; assay: Antimycobacterial activity against Mycobacterium smegmatis MC2 155 assessed as ATP leakage by measuring intracellular ATP at 4 times MIC measured at 1 hr of post dose by luciferase reporter gene assay; format: functional, str. MC2 155
# [4] = Drug metabolism in rat liver microsomes at 1 uM preincubated for 5 mins followed by NADPH addition measured up to 30 mins by LC-MS/MS method; format: ADME; settings: read-out: Drug metabolism
# [5] = test system: Mycolicibacterium smegmatis; assay: Antimycobacterial activity against Mycobacterium smegmatis MC2 155 assessed as ATP leakage by measuring intracellular ATP at 2 times MIC measured at 24 hrs post dose by luciferase reporter gene assay; format: functional, str. MC2 155
# [6] = molecular target: CYP3A4 (Homo sapiens, UniProt P08684); assay: Inhibition of CYP3A4 in human liver microsomes at 10 uM using midazolam as substrate preincubated for 5 min followed by NADPH addition measured after 10 mins by LC-MS/MS method relative to control; format: ADME; settings: probe midazolam
# Sequence of CYP3A4 (P08684 whole entry): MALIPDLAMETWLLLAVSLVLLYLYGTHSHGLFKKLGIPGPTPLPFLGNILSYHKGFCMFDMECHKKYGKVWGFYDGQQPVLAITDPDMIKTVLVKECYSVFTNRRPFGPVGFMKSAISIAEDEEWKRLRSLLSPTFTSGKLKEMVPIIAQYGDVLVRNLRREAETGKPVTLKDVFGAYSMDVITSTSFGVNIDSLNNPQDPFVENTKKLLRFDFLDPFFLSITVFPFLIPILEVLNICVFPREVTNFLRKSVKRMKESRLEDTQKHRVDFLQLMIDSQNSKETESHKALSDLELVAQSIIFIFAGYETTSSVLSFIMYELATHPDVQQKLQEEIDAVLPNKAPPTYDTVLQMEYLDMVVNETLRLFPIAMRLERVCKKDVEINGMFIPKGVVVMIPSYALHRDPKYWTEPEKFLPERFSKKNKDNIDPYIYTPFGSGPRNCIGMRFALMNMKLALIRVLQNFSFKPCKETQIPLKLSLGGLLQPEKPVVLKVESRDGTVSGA
# [7] = test system: Mycolicibacterium smegmatis; assay: Antimycobacterial activity against Mycobacterium smegmatis MC2 155 assessed as ATP leakage by measuring intracellular ATP at 4 times MIC measured at 24 hrs post dose by luciferase reporter gene assay; format: functional, str. MC2 155
# [8] = test system: Mycolicibacterium smegmatis; assay: Antimycobacterial activity against Mycobacterium smegmatis MC2 155 assessed as ATP leakage by measuring intracellular ATP at 4 times MIC measured immediatey after addition of compounds by luciferase reporter gene assay; format: functional, str. MC2 155
# [9] = Hemolytic activity against New Zealand white rabbit RBC assessed as hemoglobin release measured after 1 hr; format: ADME, cell-based, Oryctolagus cuniculus, Erythrocyte; settings: red blood cells
# [10] = test system: Mycolicibacterium smegmatis; assay: Antimycobacterial activity against Mycobacterium smegmatis MC2 155 assessed as ATP leakage by measuring intracellular ATP at MIC measured at 24 hrs post dose by luciferase reporter gene assay; format: functional, str. MC2 155
# [11] = test system: Mycolicibacterium smegmatis; assay: Antimycobacterial activity against Mycobacterium smegmatis MC2 155 after 24 hrs by broth dilution assay; format: functional; settings: str. MC2 155, 24 h
# [12] = test system: Mycolicibacterium smegmatis; assay: Antimycobacterial activity against Mycobacterium smegmatis MC2 155 assessed as inhibition of respiratory ATP synthesis by measuring ATP level at 2 times MIC measured after 6 hrs by luciferase reporter gene assay (reference value: 152%); format: functional, str. MC2 155; set-up: scale not given: the % may be the effect or the level left
# [13] = test system: Mycolicibacterium smegmatis; assay: Antimycobacterial activity against Mycobacterium smegmatis MC2 155 assessed as ATP leakage by measuring intracellular ATP at 4 times MIC measured at 9 hrs post dose by luciferase reporter gene assay; format: functional, str. MC2 155
# [14] = test system: Mycolicibacterium smegmatis; assay: Antimycobacterial activity against Mycobacterium smegmatis MC2 155 assessed as ATP leakage by measuring extracellular ATP at MIC measured immediatey after addition of compounds by luciferase reporter gene assay; format: functional, str. MC2 155
# [15] = test system: Mycolicibacterium smegmatis; assay: Antimycobacterial activity against Mycobacterium smegmatis MC2 155 assessed as ATP leakage by measuring intracellular ATP at 2 times MIC measured immediatey after addition of compounds by luciferase reporter gene assay; format: functional, str. MC2 155
# [16] = molecular target: CYP2D6 (Homo sapiens, UniProt P10635); assay: Inhibition of CYP2D6 in human liver microsomes at 10 uM using bufuralol as substrate preincubated for 5 min followed by NADPH addition measured after 10 mins by LC-MS/MS method relative to control; format: ADME; settings: probe bufuralol
# Sequence of CYP2D6 (P10635 whole entry): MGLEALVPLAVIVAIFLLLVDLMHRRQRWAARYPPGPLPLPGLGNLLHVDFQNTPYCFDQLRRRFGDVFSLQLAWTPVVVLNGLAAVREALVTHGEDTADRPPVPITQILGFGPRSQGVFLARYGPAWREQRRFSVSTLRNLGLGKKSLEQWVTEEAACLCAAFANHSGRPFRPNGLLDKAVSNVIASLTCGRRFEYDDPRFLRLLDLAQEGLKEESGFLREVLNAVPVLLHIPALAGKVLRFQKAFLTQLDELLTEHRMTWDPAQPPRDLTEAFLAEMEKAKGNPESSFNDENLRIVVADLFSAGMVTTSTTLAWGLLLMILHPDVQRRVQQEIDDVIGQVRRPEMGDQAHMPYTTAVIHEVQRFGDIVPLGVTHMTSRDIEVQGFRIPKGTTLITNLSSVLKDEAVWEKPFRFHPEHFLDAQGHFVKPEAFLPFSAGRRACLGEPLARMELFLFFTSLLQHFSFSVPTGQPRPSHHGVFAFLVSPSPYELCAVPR
# [17] = test system: Mycolicibacterium smegmatis; assay: Antimycobacterial activity against Mycobacterium smegmatis MC2 155 assessed as inhibition of respiratory ATP synthesis by measuring ATP level at 2 times MIC measured after 1 hr by luciferase reporter gene assay (reference value: 90.6%); format: functional, str. MC2 155; set-up: scale not given: the % may be the effect or the level left
# [18] = test system: Mycolicibacterium smegmatis; assay: Antimycobacterial activity against Mycobacterium smegmatis MC2 155 assessed as ATP leakage by measuring extracellular ATP at 2 times MIC measured at 24 hrs post dose by luciferase reporter gene assay; format: functional, str. MC2 155
# [19] = test system: Mycolicibacterium smegmatis; assay: Antimycobacterial activity against Mycobacterium smegmatis MC2 155 assessed as ATP leakage by measuring extracellular ATP at 4 times MIC measured at 9 hrs post dose by luciferase reporter gene assay; format: functional, str. MC2 155
# [20] = test system: Mycolicibacterium smegmatis; assay: Antimycobacterial activity against Mycobacterium smegmatis MC2 155 assessed as ATP leakage by measuring extracellular ATP at 4 times MIC measured immediatey after addition of compounds by luciferase reporter gene assay; format: functional, str. MC2 155
# [21] = test system: Lipid bilayer; assay: Induction of membrane damage in CI/DOPG/DOPI large unilamellar vesicles assessed as calcein leakage at 1:2 compound to lipid ratio by fluorescence based […] assay relative to control
# [22] = test system: Mycolicibacterium smegmatis; assay: Antimycobacterial activity against Mycobacterium smegmatis MC2 155 assessed as ATP leakage by measuring extracellular ATP at 2 times MIC measured at 9 hrs post dose by luciferase reporter gene assay; format: functional, str. MC2 155
# [23] = test system: Mycolicibacterium smegmatis; assay: Induction of membrane integrity impairment in Mycobacterium smegmatis MC2 155 at 2 to 4 times MIC measured after 3 hrs by SYTO-9/propium iodide staining based Baclight assay relative to control; format: functional, str. MC2 155
# [24] = test system: Mycolicibacterium smegmatis; assay: Induction of membrane integrity impairment in Mycobacterium smegmatis MC2 155 at 4 times MIC measured after 24 hrs by SYTO-9/propium iodide staining based Baclight assay relative to control; format: functional, str. MC2 155
# [25] = test system: Mycolicibacterium smegmatis; assay: Antimycobacterial activity against Mycobacterium smegmatis MC2 155 assessed as ATP leakage by measuring extracellular ATP at MIC measured at 9 hrs post dose by luciferase reporter gene assay; format: functional, str. MC2 155
# [26] = test system: Mycolicibacterium smegmatis; assay: Antimycobacterial activity against Mycobacterium smegmatis MC2 155 assessed as ATP leakage by measuring intracellular ATP at 2 times MIC measured at 9 hrs post dose by luciferase reporter gene assay; format: functional, str. MC2 155
# [27] = test system: Mycolicibacterium smegmatis; assay: Antimycobacterial activity against Mycobacterium smegmatis MC2 155 assessed as ATP leakage by measuring intracellular ATP at 2 times MIC measured at 6 hrs post dose by luciferase reporter gene assay; format: functional, str. MC2 155
# [28] = test system: Mycolicibacterium smegmatis; assay: Antimycobacterial activity against Mycobacterium smegmatis MC2 155 assessed as ATP leakage by measuring intracellular ATP at 0.5 times MIC measured at 9 hrs post dose by luciferase reporter gene assay; format: functional, str. MC2 155
# [29] = test system: Mycolicibacterium smegmatis; assay: Antimycobacterial activity against Mycobacterium smegmatis MC2 155 assessed as ATP leakage by measuring extracellular ATP at 4 times MIC measured at 1 hr of post dose by luciferase reporter gene assay; format: functional, str. MC2 155
# [30] = Cytotoxicity against human corneal fibroblasts assessed as increase in LDH level measured after 4 hrs by Cytotox-one […] assay; format: toxicity, Corneal fibroblast
# [31] = test system: Mycobacterium tuberculosis; assay: Antimycobacterial activity against Mycobacterium tuberculosis clinical isolate 01;111 assessed as reduction in 2 log10 bacterial colonies measured after 14 to 21 days by agar dilution method; format: functional
# [32] = test system: Mycobacterium tuberculosis; assay: Antimycobacterial activity against Mycobacterium tuberculosis clinical isolate 01;095 assessed as reduction in 2 log10 bacterial colonies measured after 14 to 21 days by agar dilution method; format: functional
# [33] = test system: Mycobacterium tuberculosis; assay: Antimycobacterial activity against Mycobacterium tuberculosis clinical isolate 01;092 assessed as reduction in 2 log10 bacterial colonies measured after 14 to 21 days by agar dilution method; format: functional
# [34] = test system: Mycobacterium tuberculosis; assay: Antimycobacterial activity against Mycobacterium tuberculosis clinical isolate 01;064 assessed as reduction in 2 log10 bacterial colonies measured after 14 to 21 days by agar dilution method; format: functional
# [35] = test system: Mycobacterium tuberculosis; assay: Antimycobacterial activity against Mycobacterium tuberculosis clinical isolate 01;001 assessed as reduction in 2 log10 bacterial colonies measured after 14 to 21 days by agar dilution method; format: functional
SMILES,Activity [1],Activity [2],Activity [3],"metabolised at 0.5 h, 1 µM [4]",Activity [5],"inhibition at 10 min, 10 µM [6]",Activity [7],Activity [8],Activity [10],MIC90 [11],Activity [12],Activity [13],Activity [14],Activity [15],"inhibition at 10 min, 10 µM [16]",Activity [17],Activity [18],Activity [19],Activity [20],Activity [22],other results
CCCN(CCC)CCCCOc1cc2oc3cc(OCCCCN(CCC)CCC)c(OC)c(CC=C(C)C)c3c(=O)c2c(O)c1CC=C(C)C,10.6%,24.7%,5.7%,10%,4.7%,0%,12%,95.7%,11.9%,3.2 µM,3.9%,15.7%,2.3%,96%,0%,5.9%,95.3%,84.3%,4.3%,96.1%,HC50 at 1 h [9]: > 277 µM; Activity [21]: 13.3%; Activity [23]: >80%; Activity [24]: 76.9%; Activity [25]: 89.4%; Activity [26]: 3.9%; Activity [27]: 3.9%; Activity [28]: 66.5%; Activity [29]: 94.3%; CC50 at 4 h [30]: > 150 µM
COc1c(OCCCCN2CCOCC2)cc2oc3cc(OCCCCN4CCOCC4)c(CC=C(C)C)c(O)c3c(=O)c2c1CC=C(C)C,41.4%,2.2%,57.3%,0%,5.3%,32%,4.5%,96.2%,11.3%,35 µM,18.9%,7.9%,2.3%,97%,0%,50.2%,94.7%,92.1%,3.8%,84.4%,HC50 at 1 h [9]: > 289 µM; MIC [31]: 4 µg/mL; MIC [32]: 4 µg/mL; Activity [25]: 58.6%; Activity [26]: 15.6%; Activity [27]: 23.3%; MIC [33]: 4 µg/mL; Activity [28]: 73.5%; Activity [29]: 42.7%; MIC [34]: 4 µg/mL; CC50 at 4 h [30]: > 150 µM; MIC [35]: 4 µg/mL
CCN(CC)CCCCOc1cc2oc3cc(OCCCCN(CC)CC)c(OC)c(CC=C(C)C)c3c(=O)c2c(O)c1CC=C(C)C,17.6%,6.8%,2.6%,12.1%,13.3%,12%,2.7%,98.7%,55.6%,3.2 µM,26.8%,2.7%,0.8%,98.7%,6%,5.8%,86.7%,97.3%,1.3%,96.6%,MIC [31]: 4 µg/mL; Activity [21]: 47%; Activity [23]: >80%; Activity [24]: 62.5%; MIC [32]: 4 µg/mL; Activity [25]: 82.4%; Activity [26]: 3.4%; Activity [27]: 3.2%; MIC [33]: 2 µg/mL; Activity [28]: 76.8%; Activity [29]: 97.4%; MIC [34]: 8 µg/mL; CC50 at 4 h [30]: > 150 µM; MIC [35]: 4 µg/mL
